Here are results for 16 compounds from ChEMBL document CHEMBL1132733, “7-Methoxybenzofuran-4-carboxamides as PDE 4 inhibitors: a potential treatment for asthma” (Bioorg Med Chem Lett, 2000).

Assay [1] concerns the target Phosphodiesterase 4 (Homo sapiens, UniProt P27815+Q08499+Q07343+Q08493). In words: Inhibition of Phosphodiesterase 4 from human U937 cells. It is filed as cell-based. Conditions: u-937.
The target in assay [2] is T1, Phosphodiesterase 4 (Rattus norvegicus, UniProt P14270+P14646+P14644+P54748). In words: Inhibition of rolipram binding in rat brain tissue. Format: tissue-based.
Assay [3] can be described thus: Relative activity against human Phosphodiesterase type 4 (PDE4) and rat rolipram binding protein (RBA). On the set-up: reference not given here.
Assay [4] has as its target Phosphodiesterase 3 (Homo sapiens) (UniProt Q14432+Q13370). In words: Inhibition of Phosphodiesterase 3 from human platelets. On the set-up: concentration or dose not given beside the values. Conditions: concentration not given here.
Assay [5] addresses T1, Phosphodiesterase 4. As to the kind of experiment: Inhibition of rolipram binding to rat brain tissue at 20 uM. It is filed as tissue-based.
Assay [6] has as its target T1, Phosphodiesterase 4. In words: Inhibition of rolipram binding to rat brain tissue. Format: tissue-based.

For orientation: IC50 means the concentration at which inhibition is half-maximal. On to `COc1ccc(C(=O)Nc2ncccc2C)c2cc(C(C)=O)oc12`, for which the results for the IC50 against Phosphodiesterase 4 [1] and at Phosphodiesterase 4 [2] were 0.452 µM and 1.85 µM, respectively. The Ratio in assay [3] came to 0.24.
The matching figures for `COc1ccc(C(=O)Nc2ncncc2Cl)c2cc(C(C)=O)oc12`: 0.164 µM, 0.0596 µM and 2.75.
For orientation: inhibition means how much of the control response was suppressed. For the compound `COc1ccc(C(=O)Nc2c(Cl)cncc2Cl)c2cc(C(C)=O)oc12`, the inhibition in assay [4] turned out to be 32%. Besides, the IC50 on Phosphodiesterase 4 [1] is 0.0016 µM.
As for `COc1ccc(C(=O)Nc2ccncc2)c2cc(C(C)=O)oc12`, the IC50 against Phosphodiesterase 4 [1] amounted to 0.12 µM; at Phosphodiesterase 4 [2], 0.25 µM. For the same compound, in assay [3], the Ratio worked out at 0.48.
In the case of `COc1ccc(C(=O)Nc2c(Cl)cncc2Cl)c2cc(C(=O)c3ccncc3)oc12`, the inhibition in assay [4] came to 7%. Besides, the IC50 against Phosphodiesterase 4 [1] amounted to 0.00241 µM; on Phosphodiesterase 4 [5] it was 8.1 nM. For the same compound, the Ratio in assay [3] was determined as 0.3.
Regarding `COc1ccc(C(=O)Nc2c(Cl)cncc2Cl)c2c(C)c(C(C)=O)oc12`, the IC50 on Phosphodiesterase 4 [1] was 0.32 µM; on Phosphodiesterase 4 [2] it was 0.16 µM.
As to `COc1ccc(C(=O)Nc2c(Cl)cc(C#N)cc2Cl)c2cc(C(C)=O)oc12`, the results for the concentration for half-maximal inhibition (IC50) against Phosphodiesterase 4 [1] and on Phosphodiesterase 4 [2] were 0.0851 µM and 0.228 µM, respectively. Besides, in assay [3], the Ratio is 0.37.
Take `COc1ccc(C(=O)Nc2ccccc2Cl)c2cc(C(C)=O)oc12`: the IC50 against Phosphodiesterase 4 [1] came out at 0.054 µM; on Phosphodiesterase 4 [6], 0.248 µM. Further, the Ratio in assay [3] was found to be 0.21.
Consider `CCc1cc2c(C(=O)Nc3c(Cl)cncc3Cl)ccc(OC)c2o1`, for which the inhibition in assay [4] is 46%. The compound also displayed a half-inhibitory concentration (IC50) against Phosphodiesterase 4 [1] of 0.027 µM.
The matching figures for `COc1ccc(C(=O)Nc2c(Cl)cncc2Cl)c2cc(C(=O)O)oc12`: 38% and 0.77 µM.
On to `COc1ccc(C(=O)Nc2ccncc2Cl)c2cc(C(C)=O)oc12`, for which the IC50 at Phosphodiesterase 4 [1] came to 0.0063 µM; at Phosphodiesterase 4 [2] it was 0.032 µM. The Ratio in assay [3] amounted to 0.197.
In the case of `COc1ccc(C(=O)Nc2cccnc2Cl)c2cc(C(C)=O)oc12`, the IC50 against Phosphodiesterase 4 [1] is 0.875 µM; on Phosphodiesterase 4 [2], 0.199 µM. The Ratio in assay [3] is 4.4.
`COc1ccc(C(=O)Nc2c(Cl)cncc2Cl)c2cc(C#N)oc12`: the inhibition in assay [4] was determined as 31%.
As to `COc1ccc(C(=O)N(C)c2c(Cl)cncc2Cl)c2cc(C(C)=O)oc12`, the values for the IC50 against Phosphodiesterase 4 [1] and at Phosphodiesterase 4 [2] were 0.33 µM and 0.15 µM, respectively.
On to `COc1ccc(C(=O)Nc2c(Cl)cncc2Cl)c2cc(CC(C)(C)C)oc12`, for which the inhibition in assay [4] came to 34%. The same compound gave an IC50 against Phosphodiesterase 4 [1] of 0.017 µM.
For `COc1ccc(C(=O)Nc2c(Cl)cncc2Cl)c2cc(C(C)O)oc12` (stereo not given) the same measures were 23% and 0.0086 µM.
